Laboratory results published in ChEMBL document CHEMBL5055668 (J Med Chem, 2021).
Calls of active or inactive are those of the source. The rule behind the calls is not given here.

What follows are compounds tested against T1, Macrophage colony-stimulating factor 1 receptor (Mus musculus) (UniProt P09581) (assay: Inhibition of CSF-1R signaling pathway in C57BL/6 mouse BMDM cells assessed as reduction in M-CSF induced CSF-1R phosphorylation at 100 nM preincubated for 12 hrs followed by M-CSF stimulation for 30 mins by Western blot analysis). Settings: not given.
T1 sequence (whole entry): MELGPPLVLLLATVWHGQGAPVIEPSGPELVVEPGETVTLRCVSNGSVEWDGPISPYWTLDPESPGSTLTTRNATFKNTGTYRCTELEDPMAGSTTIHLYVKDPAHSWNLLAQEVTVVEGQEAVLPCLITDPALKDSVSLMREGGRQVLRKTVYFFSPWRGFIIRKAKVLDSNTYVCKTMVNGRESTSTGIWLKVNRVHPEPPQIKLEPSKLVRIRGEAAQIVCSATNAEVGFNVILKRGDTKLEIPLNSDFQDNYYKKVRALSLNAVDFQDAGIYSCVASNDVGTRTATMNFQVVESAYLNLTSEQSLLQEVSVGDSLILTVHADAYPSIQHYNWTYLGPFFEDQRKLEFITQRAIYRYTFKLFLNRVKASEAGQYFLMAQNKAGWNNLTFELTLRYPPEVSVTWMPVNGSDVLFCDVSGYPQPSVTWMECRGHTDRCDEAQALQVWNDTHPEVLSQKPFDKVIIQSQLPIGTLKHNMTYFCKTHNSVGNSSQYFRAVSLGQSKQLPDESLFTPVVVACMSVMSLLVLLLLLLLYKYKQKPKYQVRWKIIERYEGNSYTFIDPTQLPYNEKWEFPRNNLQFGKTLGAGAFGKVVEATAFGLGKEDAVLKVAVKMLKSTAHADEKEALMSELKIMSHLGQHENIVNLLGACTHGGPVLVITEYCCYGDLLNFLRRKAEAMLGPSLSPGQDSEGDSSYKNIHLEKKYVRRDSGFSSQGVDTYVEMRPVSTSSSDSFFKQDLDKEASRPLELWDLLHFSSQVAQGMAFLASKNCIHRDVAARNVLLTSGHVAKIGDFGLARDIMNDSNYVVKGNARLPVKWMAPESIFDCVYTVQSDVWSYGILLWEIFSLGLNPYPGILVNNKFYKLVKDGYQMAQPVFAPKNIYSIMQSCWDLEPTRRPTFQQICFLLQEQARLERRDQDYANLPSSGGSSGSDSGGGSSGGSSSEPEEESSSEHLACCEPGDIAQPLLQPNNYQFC
Format: cell-based

SMILES | inhibition
Cc1[nH]c(/C=C2\C(=O)Nc3cc(NC(=O)Nc4cc(C(C)(C)C)on4)ccc32)c(C)c1NC(=O)[C@@H]1CCNC1 | Active
Cc1[nH]c(/C=C2\C(=O)Nc3cc(NC(=O)Nc4cc(C(C)(C)C)on4)ccc32)c(C)c1NC(=O)C1CCCCN1 (configuration not stated) | Active
FC(F)(F)c1ccc(CNc2ccc(Cc3c[nH]c4ncc(Cl)cc34)cn2)cn1 [PEXIDARTINIB] | Active
Cc1[nH]c(/C=C2\C(=O)Nc3cc(NC(=O)Nc4cc(C(C)(C)C)on4)ccc32)c(C)c1NC(=O)C1CCCNC1 (configuration not stated) | Active

Next, values leading:

inhibition | SMILES
Active | Cc1[nH]c(/C=C2\C(=O)Nc3cc(NC(=O)Nc4cc(C(C)(C)C)on4)ccc32)c(C)c1NC(=O)CCN1CCN(C)CC1
Active | Cc1[nH]c(/C=C2\C(=O)Nc3cc(NC(=O)Nc4cc(C(C)(C)C)on4)ccc32)c(C)c1NC(=O)CCN(C)C
Active | CCNCCC(=O)Nc1c(C)[nH]c(/C=C2\C(=O)Nc3cc(NC(=O)Nc4cc(C(C)(C)C)on4)ccc32)c1C
Active | Cc1[nH]c(/C=C2\C(=O)Nc3cc(NC(=O)Nc4cc(C(C)(C)C)on4)ccc32)c(C)c1NC(=O)CCN1CCCC1
Active | CCCNCCC(=O)Nc1c(C)[nH]c(/C=C2\C(=O)Nc3cc(NC(=O)Nc4cc(C(C)(C)C)on4)ccc32)c1C
Active | Cc1[nH]c(/C=C2\C(=O)Nc3cc(NC(=O)Nc4cc(C(C)(C)C)on4)ccc32)c(C)c1NC(=O)CCN1CCCCC1

The compounds below were run on MC-38 (assay: Antitumor activity against mouse MC38 cells allografted in C57BL6 mouse assessed as tumor growth inhibition at 20 mg/kg, po administered daily for 2 weeks by caliper method). Settings: MC-38, po, 336 h, read-out: TGI.

SMILES | inhibition in vivo at 20 mg/kg [%]
FC(F)(F)c1ccc(CNc2ccc(Cc3c[nH]c4ncc(Cl)cc34)cn2)cn1 [PEXIDARTINIB] | 40.3

These compounds were tested against Macrophage colony-stimulating factor 1 receptor (Homo sapiens, UniProt P07333). Settings: not given.
Macrophage colony-stimulating factor 1 receptor, sequence (P07333 whole entry): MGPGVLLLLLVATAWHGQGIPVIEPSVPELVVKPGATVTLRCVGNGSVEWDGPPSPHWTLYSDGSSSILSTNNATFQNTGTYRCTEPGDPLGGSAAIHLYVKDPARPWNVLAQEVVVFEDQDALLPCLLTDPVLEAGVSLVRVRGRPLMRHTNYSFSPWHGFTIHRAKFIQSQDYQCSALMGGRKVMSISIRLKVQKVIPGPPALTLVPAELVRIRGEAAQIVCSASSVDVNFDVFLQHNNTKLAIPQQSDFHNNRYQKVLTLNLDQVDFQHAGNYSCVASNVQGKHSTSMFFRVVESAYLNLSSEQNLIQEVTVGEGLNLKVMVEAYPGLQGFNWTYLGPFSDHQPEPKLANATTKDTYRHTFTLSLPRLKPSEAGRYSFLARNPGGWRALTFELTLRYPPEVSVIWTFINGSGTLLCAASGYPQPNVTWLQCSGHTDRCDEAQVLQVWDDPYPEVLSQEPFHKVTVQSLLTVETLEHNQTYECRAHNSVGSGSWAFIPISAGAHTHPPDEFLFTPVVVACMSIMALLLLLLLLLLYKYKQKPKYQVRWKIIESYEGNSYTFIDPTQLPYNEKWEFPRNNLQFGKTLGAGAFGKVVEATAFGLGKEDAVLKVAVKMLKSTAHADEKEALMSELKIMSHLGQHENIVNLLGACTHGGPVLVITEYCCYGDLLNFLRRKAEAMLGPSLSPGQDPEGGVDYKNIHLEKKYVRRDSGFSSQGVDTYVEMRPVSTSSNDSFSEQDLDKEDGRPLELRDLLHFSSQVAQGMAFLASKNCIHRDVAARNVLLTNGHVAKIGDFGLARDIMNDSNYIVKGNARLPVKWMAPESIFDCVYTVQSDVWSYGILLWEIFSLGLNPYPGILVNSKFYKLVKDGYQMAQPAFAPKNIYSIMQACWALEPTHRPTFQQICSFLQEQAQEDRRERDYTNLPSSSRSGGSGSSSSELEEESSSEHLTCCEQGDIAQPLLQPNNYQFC

IC50 [µM] | SMILES
> 3 | CCN(CC)CCNC(=O)c1c(C)[nH]c(/C=C2\C(=O)Nc3cc(NC(=O)NC4CCN(C)CC4)ccc32)c1C
